Article PMC6412366, “The Limitations of Collagen/CPP Hybrid Peptides as Carriers for Cancer Drugs to FaDu Cells” (Molecules, 2019)

System: FaDu cell surface
Experiment: Suramin wash (competitive binding) of FL8V1-treated FaDu cells
Type: cell-based, human
Details: concluded from reversed incubation order
Description: FaDu cells were seeded into MatTek dishes (No. 1.5 coverglass, 35 mm). After the cells were at least 70% confluent, the media was removed and the cells were gently washed with PBS. […] The cells were washed twice with PBS. Additional EMEM medium was added before the cell cultures were imaged using confocal microscopy (λEX = 488 for FITC tag) using the 60X oil immersion objective.

Cc1ccc(C(=O)Nc2ccc(S(=O)(=O)O)c3cc(S(=O)(=O)O)cc(S(=O)(=O)O)c23)cc1NC(=O)c1cccc(NC(=O)Nc2cccc(C(=O)Nc3cc(C(=O)Nc4ccc(S(=O)(=O)O)c5cc(S(=O)(=O)O)cc(S(=O)(=O)O)c45)ccc3C)c2)c1 [suramin]
binding of suramin to the FaDu cell surface: does not bind
